# Measured values from patent US20070128217A1 (priority 2003, published 2007).
# Legend:
# [1] = tested on: antibodies in sera from SARS patients (sera 1a, 1b, 2, 6, 37, 62, London, SARS-yellow, SARS-green); assay type: binding, human; set-up: Binding of serum 6 to linear peptides of protein X1 of SARS-CoV Urbani / Binding of serum 37 to linear peptides of protein X1 of SARS-CoV Urbani / Binding of serum 6 to looped/cyclic peptide (PEPSCAN-ELISA) / Binding of serum 37 to looped/cyclic peptide (PEPSCAN-ELISA) / Binding of serum 37 to looped/cyclic peptides of protein X1 of SARS-CoV Urbani / Binding of serum 6 to linear peptides of protein X2 / Binding of serum 37 to linear peptides of protein X2 / Binding of serum 37 to looped/cyclic peptides of protein X2 of SARS-CoV Urbani / Binding of serum 6 to linear peptides of protein M of SARS-CoV Urbani / Binding of serum 37 to linear peptides of protein M of SARS-CoV Urbani / Binding of serum 6 to looped/cyclic peptides of protein M of SARS-CoV Urbani / Binding of serum 37 to looped/cyclic peptides of protein M of SARS-CoV Urbani / Binding of serum 6 to linear peptides of protein X3 of SARS-CoV Urbani / Binding of serum 37 to linear peptides of protein X3 of SARS-CoV Urbani / Binding of serum 37 to looped/cyclic peptides of protein X3 of SARS-CoV Urbani / Binding of serum 6 to linear peptides of protein X4 of SARS-CoV Urbani / Binding of serum 37 to linear peptides of protein X4 of SARS-CoV Urbani / Binding of serum 37 to looped/cyclic peptides of protein X4 of SARS-CoV Urbani / Binding of serum 6 to linear peptides of protein X5 of SARS-CoV Urbani / Binding of serum 37 to linear peptides of protein X5 of SARS-CoV Urbani / Binding of serum 37 to looped/cyclic peptides of protein X5 of SARS-CoV Urbani / Binding of serum 6 to linear peptides of protein N of SARS-CoV Urbani / Binding of serum 37 to linear peptides of protein N of SARS-CoV Urbani / Binding of serum 6 to linear peptide (PEPSCAN-ELISA) / Binding of serum 1a to looped/cyclic peptides of protein N of SARS-CoV Urbani / Binding of serum 1b to looped/cyclic peptides of protein N of SARS-CoV Urbani / Binding of serum 2 to looped/cyclic peptides of protein N of SARS-CoV Urbani / Binding of serum 6 to looped/cyclic peptides of protein N of SARS-CoV Urbani / Binding of serum 37 to looped/cyclic peptides of protein N of SARS-CoV Urbani / Binding of serum 62 to looped/cyclic peptides of protein N of SARS-CoV Urbani / Binding of serum London to looped/cyclic peptides of protein N of SARS-CoV Urbani / Binding of serum SARS-green to looped/cyclic peptides of protein N of SARS-CoV Urbani: unit not given here
# [2] = tested on: control sera (pooled serum of ten healthy LUMC hospital workers; commercial negative donor pooled serum from the Dutch bloodbank); assay type: binding, human; set-up: Binding of Control serum LUMC to linear peptides / Binding of Control serum Blood-bank to linear peptides / Binding of Control serum LUMC to looped peptides / Binding of Control Serum Blood-Bank to Looped peptides / Binding of Control serum LUMC to linear peptides of the protein M of SARS-CoV Urbani / Binding of Control serum Blood-bank to linear peptides of the protein M of SARS-CoV Urbani / Binding of Control serum LUMC to looped peptides of the protein M of SARS-CoV Urbani / Binding of Control Serum Blood-Bank to Looped peptides of the protein M of SARS-CoV Urbani: unit not given here
# [3] = tested on: rabbit serum obtained by immunizing a rabbit with the SARS-CoV strain Frankfurt 1; assay type: binding; set-up: Binding of a rabbit serum to linear peptides / Binding of a rabbit serum to looped peptides / Rabbit serum linear peptides / Rabbit serum looped peptides / Binding of a rabbit serum to linear peptides of protein N of SARS-CoV Urbani (Rabbit serum linear peptides) / Binding of a rabbit serum to looped/cyclic peptides of protein N of SARS-CoV Urbani (Rabbit serum looped peptides): unit not given here
Sequence,Binding of serum 1a to linear peptides of protein X1 of SARS-CoV Urbani [1],Binding of serum 1a to looped/cyclic peptides of protein X1 of SARS-CoV Urbani [1],Binding of serum 1b to linear peptides of protein X1 of SARS-CoV Urbani [1],Binding of serum 1b to looped/cyclic peptides of protein X1 of SARS-CoV Urbani [1],Binding of serum 2 to linear peptides of protein X1 of SARS-CoV Urbani [1],Binding of serum 2 to looped/cyclic peptides of protein X1 of SARS-CoV Urbani [1],Binding of serum 6 to linear peptides of protein X1 of SARS-CoV Urbani [1],Binding of serum 6 to looped/cyclic peptides of protein X1 of SARS-CoV Urbani [1],Binding of serum 37 to linear peptides of protein X1 of SARS-CoV Urbani [1],Binding of serum 37 to looped/cyclic peptides of protein X1 of SARS-CoV Urbani [1],Binding of serum 62 to linear peptides of protein X1 of SARS-CoV Urbani [1],Binding of serum 62 to looped/cyclic peptides of protein X1 of SARS-CoV Urbani [1],Binding of serum London to linear peptides of protein X1 of SARS-CoV Urbani [1],Binding of serum London to looped/cyclic peptides of protein X1 of SARS-CoV Urbani [1],Binding of Control Serum Blood-Bank to Looped peptides [2],Binding of Control serum Blood-bank to linear peptides [2],Binding of Control serum LUMC to linear peptides [2],Binding of Control serum LUMC to looped peptides [2],Binding of a rabbit serum to linear peptides [3],Binding of a rabbit serum to looped peptides [3],other results
TEGDGISTPKLKEDY,0.5,0.5,0.3,0.4,0.4,0.5,0.2,0.4,0.4,0.4,0.3,0.4,0.2,0.2,0.5,0.2,0.2,0.5,0.1,0.5,Binding of serum SARS-green to linear peptides of protein X1 of SARS-CoV Urbani [1]: 0.1; Binding of serum SARS-green to looped/cyclic peptides of protein X1 of SARS-CoV Urbani [1]: 0.3; Binding of serum SARS-yellow to linear peptides of protein X1 of SARS-CoV Urbani [1]: 0.0; Binding of serum SARS-yellow to looped/cyclic peptides of protein X1 of SARS-CoV Urbani [1]: 0.3
TEVYYQLESTQITTD,0.8,0.5,0.8,0.5,0.5,0.2,0.5,0.3,0.9,0.5,0.6,0.4,0.4,0.2,0.4,0.5,0.5,0.4,0.1,0.4,Binding of serum SARS-green to linear peptides of protein X1 of SARS-CoV Urbani [1]: 0.5; Binding of serum SARS-green to looped/cyclic peptides of protein X1 of SARS-CoV Urbani [1]: 0.3; Binding of serum SARS-yellow to linear peptides of protein X1 of SARS-CoV Urbani [1]: 0.6; Binding of serum SARS-yellow to looped/cyclic peptides of protein X1 of SARS-CoV Urbani [1]: 0.3
TGIENATFFIFNKLV,0.7,0.6,0.5,0.5,0.6,0.6,0.5,0.5,0.7,0.7,0.7,0.7,0.3,0.3,0.8,0.8,0.7,0.7,0.1,0.6,Binding of serum SARS-green to linear peptides of protein X1 of SARS-CoV Urbani [1]: 0.4; Binding of serum SARS-green to looped/cyclic peptides of protein X1 of SARS-CoV Urbani [1]: 0.2; Binding of serum SARS-yellow to linear peptides of protein X1 of SARS-CoV Urbani [1]: 0.6; Binding of serum SARS-yellow to looped/cyclic peptides of protein X1 of SARS-CoV Urbani [1]: 0.4
THRMCKYTQSTALQE,–,–,–,–,–,–,–,–,–,–,–,–,–,–,0.5,0.9,0.7,0.4,0.3,0.3,Binding of serum 1a to linear peptides of protein X2 [1]: 0.9; Binding of serum 1a to looped/cyclic peptides of protein X2 of SARS-CoV Urbani [1]: 0.5; Binding of serum 1b to linear peptides of protein X2 [1]: 0.8; Binding of serum 1b to looped/cyclic peptides of protein X2 of SARS-CoV Urbani [1]: 0.6; Binding of serum 2 to linear peptides of protein X2 [1]: 0.5; Binding of serum 2 to looped/cyclic peptides of protein X2 of SARS-CoV Urbani [1]: 0.2; Binding of serum 6 to linear peptides of protein X2 [1]: 0.6; Binding of serum 6 to looped/cyclic peptides of protein X2 of SARS-CoV Urbani [1]: 0.2; Binding of serum 37 to linear peptides of protein X2 [1]: 0.7; Binding of serum 37 to looped/cyclic peptides of protein X2 of SARS-CoV Urbani [1]: 0.3; Binding of serum 62 to linear peptides of protein X2 [1]: 0.8; Binding of serum 62 to looped/cyclic peptides of protein X2 of SARS-CoV Urbani [1]: 0.4; Binding of serum London to linear peptides of protein X2 [1]: 0.7; Binding of serum London to looped/cyclic peptides of protein X2 of SARS-CoV Urbani [1]: 0.2; Binding of serum SARS-green to linear peptides of protein X2 [1]: 0.6; Binding of serum SARS-green to looped/cyclic peptides of protein X2 of SARS-CoV Urbani [1]: 0.5; Binding of serum SARS-yellow to linear peptides of protein X2 [1]: 0.8; Binding of serum SARS-yellow to looped/cyclic peptides of protein X2 of SARS-CoV Urbani [1]: 0.3
